Measured values published in patent publication US20110105554A1, “MEANS FOR TREATING MYOSIN-RELATED DISEASES” (KINARIS BIOMEDICALS GMBH, priority 2007, published 2011).

Columns and labels:
myosin-1E = myosin-1E (Dictyostelium discoideum, UniProt Q03479); assay: In vitro motility assay (actin filament sliding), myosin-1E; assay type: biochemical; conditions: data not shown
Protocol: The extent and order of isoform-specific differences in the potency of the inhibitor were additionally confirmed by the results of in vitro motility assays). […] (FIG. 11a) Myosin-5a moves actin filaments with an average velocity of 0.6 μm/s±0.05 (dark bars); addition of 10 μM PBP into the same flow cell lead to a 46-fold reduction of the average sliding velocity to 0.013 μm/s±0.002 (light grey bars).
Direct functional Assays. Actin-sliding motility was performed at 25° C. using an Olympus IX81 inverted fluorescence microscope. Experimental flow cells were constructed using bovine serum albumin (0.5 mg/ml in assay buffer)-coated glass slides and nitrocellulose-coated coverslips. Myosins were actin affinity-purified immediately before use, to remove rigor heads^20. Sliding movement was started by adding assay buffer containing 4 mM ATP, 10 mM DTT, 0.5 mg/ml bovine serum albumin, anti-fade solution, and 0.5% methylcellulose to the flow cell. Average sliding velocity was determined from the Gaussian distribution of automatically tracked actin filaments using DiaTrack 3.0 and Origin 7.0.

Dictyostelium myosin-1E = target: T1, Dictyostelium myosin-1E (Dictyostelium discoideum, UniProt Q03479); assay: Actin-activated ATPase activity (NADH-coupled assay), Dictyostelium myosin-1E; assay type: biochemical
T1 construct: comprising amino acids 1-698, 1-765, and 1-839 respectively; made in house
Protocol: (§1) Based on the structure of the myosin-2 motor domain with bound PBP, we performed molecular modeling studies to elucidate the specificity of PBP-binding to myosins from different classes. […] To test the predictions from the modeling studies, we determined actin-activated ATPase activities in the presence of 0 to 150 μM PBP with rabbit skeletal myosin-2 heavy meromyosin (HMM), myosin-5a isolated from chicken brain, and recombinant Dictyostelium myosin class-1, 2 and 5 motor-domain constructs (FIG. 9a). […] The concentrations of PBP required for half-maximal inhibition of the different myosin motors was calculated from fitting the data to hyperbolae. […] To determine the extend to which PBP impairs the coupling between the actin- and nucleotide-binding sites of myosin, we measured the ATP turn-over rates of Dictyostelium myosin-2 and myosin-5b motor domain constructs over the range from 0 to 50 μM F-actin in the absence and presence of 25 μM PBP.
(§2) Protein preparation. Rabbit fast skeletal muscle heavy meromyosin (HMM) was prepared as described by Kron and Spudich^9. […]
(§3) Steady-state kinetics. Basal and actin-activated Mg^2+-ATPase activities were measured with the NADH-coupled assay^19 in a buffer containing 25 mM HEPES, 25 mM KCl, and 4 mM MgCl2, 0.5 mM DTT at pH 7.0 in the presence of 1 mM ATP at 25° C. […]

[1] = test system: human hepatocyte carcinoma cells (Hep G2); assay: cells; conditions: Homo sapiens, HepG2, 4 h, read-out: half effective concentration EC50, neutral red uptake
Protocol: Cytotoxicity may be assayed by determining the cellular uptake of neutral red. Only living cells are capable of neutral red uptake via an active transport mechanism. For an exemplary workflow of a cytotoxicity assay, see FIG. 16.
FIG. 16: Cytotoxicity assay.
FIG. 22: Cytotoxic testing of KIN-compounds by neutral red uptake assays. (a) human hepatocyte carcinoma cells (Hep G2) were exposed to KIN-43 for 4 h in the in presence of 1% FBS.
We are using a library of common organic molecules and functional groups and are applying an empirical force field description of the nonbonding interactions between a ligand and the binding site in order to build up de novo compounds with spatial and electrostatic properties complementary to the allosteric binding site.

DdMyosin-5b = target: T2, DdMyosin-5b (Dictyostelium discoideum, UniProt P54697); assay: mantATP binding to DdMyosin-5b (stopped-flow)
T2 construct: comprising amino acids 1-698, 1-765, and 1-839 respectively; made in house
Protocol: Effect of Pentabromopseudilin on ATP binding kinetics to DdMyosin-5b and acto-DdMyosin-5b. (FIG. 10a) Fluorescence transients obtained upon mixing 1 μM DdMyosin-5b with 10 μM mantATP in the absence and presence of 5 μM, 25 μM, 50 μM and 100 μM PBP. Mant-fluorescence was excited at 365 nm and detected after passing through a KV 389 nm cut-off filter. The fluorescent signal of mantATP binding to DdMyosin-5b in the absence of PBP follows a single exponential function (upper curve). The presence of increasing concentrations of PBP lead to reduced amplitudes of the fluorescent signals that are best fit by double exponentials. (FIG. 10b) Plot of the relative amplitudes of mantATP binding to Dd Myosin-5b at different PBP concentrations. […] (FIG. 10c) Fluorescence transients of the ATP induced dissociation of pyrene-acto-DdMyosin-5b in the absence (black curve) and presence (grey curve) of 50 μM PBP. (FIG. 10d) Quench-flow experiments of the ATP hydrolysis reaction upon mixing 5 μM M761 with 25 μM ATP in the absence (solid squares) and presence (open circles) of 50 μM PBP. […]
The binding and hydrolysis of ATP and mantATP, respectively by myosin head fragments were analyzed in terms of the seven-step model described by Bagshaw and coworkers (4). Transients in the presence of actin were analyzed according to the mechanisms described in references 5 and 6.

[2] = target: rabbit skeletal myosin-2 heavy meromyosin (HMM); assay: Actin-activated ATPase activity, rabbit skeletal myosin-2 HMM; assay type: biochemical; conditions: 0 to 150 μM PBP, hyperbolic fit; read-out: Ki, half-maximal inhibition of actin-activated ATPase activity
Protocol: as §1, §2, §3

T1 sequence (Q03479 1-698): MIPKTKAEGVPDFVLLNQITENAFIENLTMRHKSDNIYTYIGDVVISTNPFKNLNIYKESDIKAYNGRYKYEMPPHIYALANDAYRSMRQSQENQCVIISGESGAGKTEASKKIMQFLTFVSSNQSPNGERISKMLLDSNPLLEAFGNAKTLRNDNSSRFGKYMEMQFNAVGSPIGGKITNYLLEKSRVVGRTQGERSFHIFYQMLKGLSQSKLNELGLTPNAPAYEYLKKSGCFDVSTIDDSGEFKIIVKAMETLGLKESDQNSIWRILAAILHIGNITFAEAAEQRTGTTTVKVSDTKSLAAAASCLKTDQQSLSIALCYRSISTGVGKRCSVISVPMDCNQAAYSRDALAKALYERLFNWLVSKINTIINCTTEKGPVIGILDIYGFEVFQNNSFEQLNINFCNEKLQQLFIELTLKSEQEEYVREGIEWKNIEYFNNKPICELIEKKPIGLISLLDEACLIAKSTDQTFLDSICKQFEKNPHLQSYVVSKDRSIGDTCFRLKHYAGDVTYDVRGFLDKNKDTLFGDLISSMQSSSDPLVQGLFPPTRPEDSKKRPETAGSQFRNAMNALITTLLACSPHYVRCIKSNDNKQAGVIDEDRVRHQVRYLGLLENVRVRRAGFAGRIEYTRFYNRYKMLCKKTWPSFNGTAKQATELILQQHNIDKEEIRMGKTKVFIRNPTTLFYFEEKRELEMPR
T2 sequence (P54697 1-839): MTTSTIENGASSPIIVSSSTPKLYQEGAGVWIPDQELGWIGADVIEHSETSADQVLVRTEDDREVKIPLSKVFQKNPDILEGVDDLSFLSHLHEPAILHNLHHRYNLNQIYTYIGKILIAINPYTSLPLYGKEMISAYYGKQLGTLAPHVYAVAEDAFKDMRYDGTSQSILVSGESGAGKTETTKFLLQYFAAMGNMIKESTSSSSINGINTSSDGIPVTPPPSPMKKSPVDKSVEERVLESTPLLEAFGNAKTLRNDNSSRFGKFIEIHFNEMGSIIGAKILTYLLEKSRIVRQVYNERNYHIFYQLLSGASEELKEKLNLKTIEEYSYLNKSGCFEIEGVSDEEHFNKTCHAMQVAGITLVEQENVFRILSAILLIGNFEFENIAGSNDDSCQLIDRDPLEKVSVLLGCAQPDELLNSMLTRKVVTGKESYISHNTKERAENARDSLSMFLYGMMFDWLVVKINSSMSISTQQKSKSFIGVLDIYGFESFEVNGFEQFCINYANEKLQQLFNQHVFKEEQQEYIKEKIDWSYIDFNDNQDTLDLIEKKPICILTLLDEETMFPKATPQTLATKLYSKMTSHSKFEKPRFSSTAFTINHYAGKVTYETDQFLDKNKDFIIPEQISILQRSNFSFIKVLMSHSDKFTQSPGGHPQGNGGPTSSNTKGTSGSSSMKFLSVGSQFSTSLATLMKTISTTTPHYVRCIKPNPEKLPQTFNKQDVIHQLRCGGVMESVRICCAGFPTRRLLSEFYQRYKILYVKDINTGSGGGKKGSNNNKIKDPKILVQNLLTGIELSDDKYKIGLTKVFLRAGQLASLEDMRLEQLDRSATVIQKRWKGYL
myosin-1E, sequence (Q03479 whole entry, canonical isoform): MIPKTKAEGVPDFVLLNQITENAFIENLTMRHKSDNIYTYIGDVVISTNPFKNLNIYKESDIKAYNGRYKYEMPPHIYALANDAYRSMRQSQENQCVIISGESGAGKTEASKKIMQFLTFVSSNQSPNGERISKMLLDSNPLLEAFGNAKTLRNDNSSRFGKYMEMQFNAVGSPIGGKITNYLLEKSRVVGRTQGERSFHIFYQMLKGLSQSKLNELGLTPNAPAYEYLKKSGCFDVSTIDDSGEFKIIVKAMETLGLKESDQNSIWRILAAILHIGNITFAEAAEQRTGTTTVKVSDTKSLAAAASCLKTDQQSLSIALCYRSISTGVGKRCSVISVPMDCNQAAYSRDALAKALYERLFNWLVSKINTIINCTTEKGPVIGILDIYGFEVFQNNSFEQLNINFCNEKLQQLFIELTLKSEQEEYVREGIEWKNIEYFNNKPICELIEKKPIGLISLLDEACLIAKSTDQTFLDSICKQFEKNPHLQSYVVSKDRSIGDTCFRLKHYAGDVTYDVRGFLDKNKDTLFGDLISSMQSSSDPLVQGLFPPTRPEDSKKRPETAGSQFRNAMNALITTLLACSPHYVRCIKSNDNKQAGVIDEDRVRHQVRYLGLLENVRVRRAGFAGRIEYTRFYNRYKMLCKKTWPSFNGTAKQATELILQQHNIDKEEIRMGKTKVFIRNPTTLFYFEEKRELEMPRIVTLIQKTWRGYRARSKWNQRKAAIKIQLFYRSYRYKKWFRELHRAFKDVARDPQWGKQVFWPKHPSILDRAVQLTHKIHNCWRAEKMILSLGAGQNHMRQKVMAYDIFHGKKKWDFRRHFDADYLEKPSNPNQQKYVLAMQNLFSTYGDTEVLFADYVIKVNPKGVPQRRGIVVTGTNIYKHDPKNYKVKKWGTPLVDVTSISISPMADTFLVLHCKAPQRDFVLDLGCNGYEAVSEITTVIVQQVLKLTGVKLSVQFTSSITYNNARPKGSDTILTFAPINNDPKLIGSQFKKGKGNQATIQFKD

## Oc1c(Br)cc(Br)cc1-c1[nH]c(Br)c(Br)c1Br [KIN-43]
myosin-1E
  inhibition of actin filament sliding: No significant inhibition
Dictyostelium myosin-1E
  Ki: 49.5 µM
Dictyostelium myosin-1E; >100 μM PBP, 3.5 s^−1 without
  ATPase activity at 30 μM F-actin in the presence of inhibitor: 0.10 s⁻¹
[1]
  EC50: 0.03 µM
DdMyosin-5b
  Kd: 21 ± 2 µM
[2]
  Ki: 23 µM
